Assay results reported in ChEMBL document CHEMBL5113418, “Discovery of precision targeting EZH2 degraders for triple-negative breast cancer” (Eur J Med Chem, 2022).
Activity calls are given as the source filed them. No cut-off for these calls is given here.

Key:
[1] = target: T1, Protein cereblon/Histone-lysine N-methyltransferase EZH2 (Homo sapiens) (UniProt Q15910+Q96SW2); experiment: PROTAC activity at E3 ubiquitin ligase/EZH2 in human MDA-MB-468 cells assessed as induction of EED degradation at 0.125 to 1 uM incubated for 48 hrs by western blot analysis; assay type: cell-based; details: dose 0.125-1 µM, DDE = dose-dependent effect
T1 sequence (Q15910 whole entry, looked up): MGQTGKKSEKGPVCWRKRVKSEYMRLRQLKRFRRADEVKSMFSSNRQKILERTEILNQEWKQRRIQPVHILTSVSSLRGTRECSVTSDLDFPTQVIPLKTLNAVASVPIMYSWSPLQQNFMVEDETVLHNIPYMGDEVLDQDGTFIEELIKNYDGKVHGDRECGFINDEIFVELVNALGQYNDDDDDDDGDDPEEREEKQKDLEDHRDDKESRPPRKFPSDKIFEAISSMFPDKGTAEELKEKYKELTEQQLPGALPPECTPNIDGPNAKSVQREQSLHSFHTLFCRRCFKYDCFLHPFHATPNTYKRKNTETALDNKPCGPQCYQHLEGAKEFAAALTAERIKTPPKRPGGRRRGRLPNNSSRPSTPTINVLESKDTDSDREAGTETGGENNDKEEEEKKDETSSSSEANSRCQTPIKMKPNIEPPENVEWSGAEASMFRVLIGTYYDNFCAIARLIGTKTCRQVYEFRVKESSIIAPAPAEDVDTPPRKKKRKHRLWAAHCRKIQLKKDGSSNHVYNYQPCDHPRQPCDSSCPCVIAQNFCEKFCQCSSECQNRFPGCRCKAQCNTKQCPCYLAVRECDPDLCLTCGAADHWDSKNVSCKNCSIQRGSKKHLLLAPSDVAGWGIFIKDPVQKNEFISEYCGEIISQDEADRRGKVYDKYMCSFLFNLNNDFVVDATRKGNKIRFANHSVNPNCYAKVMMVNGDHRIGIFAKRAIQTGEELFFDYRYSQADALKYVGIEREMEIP
T1 sequence (Q96SW2 whole entry, looked up): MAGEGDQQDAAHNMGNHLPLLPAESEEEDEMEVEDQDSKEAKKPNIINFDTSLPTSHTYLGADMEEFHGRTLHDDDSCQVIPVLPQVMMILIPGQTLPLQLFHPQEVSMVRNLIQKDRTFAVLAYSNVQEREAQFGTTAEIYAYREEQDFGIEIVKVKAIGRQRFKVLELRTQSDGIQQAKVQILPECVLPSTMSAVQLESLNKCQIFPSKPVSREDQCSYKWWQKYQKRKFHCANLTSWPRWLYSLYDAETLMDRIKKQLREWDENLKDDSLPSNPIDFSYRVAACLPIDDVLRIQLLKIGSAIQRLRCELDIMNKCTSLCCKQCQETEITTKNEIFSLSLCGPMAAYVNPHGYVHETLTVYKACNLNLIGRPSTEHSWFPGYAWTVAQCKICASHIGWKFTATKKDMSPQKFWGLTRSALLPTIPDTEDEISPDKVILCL

MDA-MB-231 [2] = experiment: Induction of apoptosis in human MDA-MB-231 cells assessed as increase in apoptotic cells at 0.25 to 0.75 uM incubated for 48 hrs by Annexin V-PE and 7AAD staining based flow cytometry; assay type: functional, cell-based; details: dose 0.25-0.75 µM
MV4-11 = experiment: Antiproliferative activity against human MV4-11 cells assessed as cell growth inhibition incubated for 72 hrs by MTT assay; assay type: functional, cell-based; details: MV4-11, 72 h
[3] = target: T1, Protein cereblon/Histone-lysine N-methyltransferase EZH2 (Homo sapiens); experiment: PROTAC activity at E3 ubiquitin ligase/EZH2 in human MDA-MB-468 cells assessed as reduction on EED expression at 0.75 uM incubated for 24 hrs by proteomic analysis; assay type: cell-based
[4] = target: T1, Protein cereblon/Histone-lysine N-methyltransferase EZH2 (Homo sapiens); experiment: PROTAC activity at E3 ubiquitin ligase/EZH2 in human MDA-MB-468 cells assessed as decrease in H3K27me3 expression at 0.25 to 0.75 uM incubated for 48 hrs by western blot analysis; assay type: cell-based; details: dose 0.25-0.75 µM
[5] = target: T1, Protein cereblon/Histone-lysine N-methyltransferase EZH2 (Homo sapiens); experiment: PROTAC activity at E3 ubiquitin ligase/EZH2 in human MDA-MB-468 cells assessed as increase in EZH1 expression at 0.25 to 0.75 uM incubated for 48 hrs by western blot analysis; assay type: cell-based; details: dose 0.25-0.75 µM
MDA-MB-468 [6] = experiment: Antiproliferative activity against human MDA-MB-468 cells assessed as reduction in EdU positive cells at 0.25 to 0.75 uM incubated for 48 hrs by EdU incorporation assay; assay type: functional, cell-based; details: dose 0.25-0.75 µM
Homo sapiens = organism: Homo sapiens; experiment: Binding affinity to recombinant PRC2 complex (unknown origin) assessed as association rate constant by surface plasmon resonance assay
BT-549 = experiment: Antiproliferative activity against human BT-549 cells assessed as cell growth inhibition incubated for 72 hrs by MTT assay; assay type: functional, cell-based; details: BT-549, 72 h
HL-60 = experiment: Antiproliferative activity against human HL-60 cells assessed as cell growth inhibition incubated for 72 hrs by MTT assay; assay type: functional, cell-based; details: HL-60, 72 h
[7] = Binding affinity to recombinant PRC2 complex (unknown origin) assessed as dissociation rate constant by surface plasmon resonance assay; set-up: species or system Homo sapiens
[8] = target: T1, Protein cereblon/Histone-lysine N-methyltransferase EZH2 (Homo sapiens); experiment: PROTAC activity at E3 ubiquitin ligase/EZH2 in human MDA-MB-468 cells assessed as induction of EZH2 degradation at 0.125 to 1 uM incubated for 48 hrs by western blot analysis; assay type: cell-based; details: dose 0.125-1 µM, DDE = dose-dependent effect
[9] = target: T1, Protein cereblon/Histone-lysine N-methyltransferase EZH2 (Homo sapiens); experiment: PROTAC activity at E3 ubiquitin ligase/EZH2 in human MDA-MB-468 cells assessed as induction of EZH2 degradation at 1 uM incubated for 12 to 48 hrs by western blot analysis; assay type: cell-based; details: time 12-48 hrs
MDA-MB-231 [10] = experiment: Antiproliferative activity against human MDA-MB-231 cells assessed as colony growth inhibition at 0.25 to 0.75 uM incubated for 48 hrs by crystal violet staining method; assay type: functional, cell-based; details: dose 0.25-0.75 µM
[11] = Antiproliferative activity against human MCF-10A cells assessed as cell growth inhibition incubated for 72 hrs by MTT assay; assay type: toxicity, cell-based
[12] = Binding affinity to recombinant PRC2 complex (unknown origin) assessed as Equilibrium dissociation constant by surface plasmon resonance assay; set-up: species or system Homo sapiens
MDA-MB-468 [13] = experiment: Antiproliferative activity against human MDA-MB-468 cells assessed as colony growth inhibition at 0.25 to 0.75 uM incubated for 48 hrs by crystal violet staining method; assay type: functional, cell-based; details: dose 0.25-0.75 µM
[14] = target: T1, Protein cereblon/Histone-lysine N-methyltransferase EZH2 (Homo sapiens); experiment: PROTAC activity at E3 ubiquitin ligase/EZH2 in human MDA-MB-468 cells assessed as induction of SUZ12 degradation at 0.125 to 1 uM incubated for 48 hrs by western blot analysis; assay type: cell-based; details: dose 0.125-1 µM, DDE = dose-dependent effect
[15] = Antiproliferative activity against human L02 cells assessed as cell growth inhibition incubated for 72 hrs by MTT assay; assay type: toxicity, cell-based
MDA-MB-468 [16] = experiment: Induction of apoptosis in human MDA-MB-468 cells assessed as increase in cleaved caspase-3 expression at 0.25 to 0.75 uM incubated for 48 hrs by western blot analysis; assay type: functional, cell-based; details: dose 0.25-0.75 µM
MDA-MB-231 [17] = experiment: Antiproliferative activity against human MDA-MB-231 cells assessed as cell growth inhibition incubated for 72 hrs by MTT assay; assay type: functional, cell-based; details: MDA-MB-231, 72 h
MDA-MB-468 [18] = experiment: Induction of apoptosis in human MDA-MB-468 cells assessed as decrease in Bcl-2 expression at 0.25 to 0.75 uM incubated for 48 hrs by western blot analysis; assay type: functional, cell-based; details: dose 0.25-0.75 µM
[19] = target: T1, Protein cereblon/Histone-lysine N-methyltransferase EZH2 (Homo sapiens); experiment: PROTAC activity at E3 ubiquitin ligase/EZH2 in human MDA-MB-231 cells assessed as induction of EZH2 degradation at 0.125 to 1 uM incubated for 48 hrs by western blot analysis; assay type: cell-based; details: dose 0.125-1 µM, DDE = dose-dependent effect
[20] = target: T1, Protein cereblon/Histone-lysine N-methyltransferase EZH2 (Homo sapiens); experiment: PROTAC activity at E3 ubiquitin ligase/EZH2 in human MDA-MB-468 cells assessed as induction of EZH2 degradation at 1 uM incubated for 48 hrs by western blot analysis; assay type: cell-based
[21] = target: T1, Protein cereblon/Histone-lysine N-methyltransferase EZH2 (Homo sapiens); experiment: PROTAC activity at E3 ubiquitin ligase/EZH2 in human MDA-MB-468 cells assessed as reduction on EZH2 expression at 0.75 uM incubated for 24 hrs by proteomic analysis; assay type: cell-based
[22] = target: T1, Protein cereblon/Histone-lysine N-methyltransferase EZH2 (Homo sapiens); experiment: PROTAC activity at E3 ubiquitin ligase/EZH2 in human MDA-MB-231 cells assessed as induction of SUZ12 degradation at 0.125 to 1 uM incubated for 48 hrs by western blot analysis; assay type: cell-based; details: dose 0.125-1 µM, DDE = dose-dependent effect
[23] = target: T1, Protein cereblon/Histone-lysine N-methyltransferase EZH2 (Homo sapiens); experiment: PROTAC activity at E3 ubiquitin ligase/EZH2 in human MDA-MB-468 cells assessed as reduction on SUZ12 expression at 0.75 uM incubated for 24 hrs by proteomic analysis; assay type: cell-based
MDA-MB-231 [24] = experiment: Induction of apoptosis in human MDA-MB-231 cells assessed as increase in reduction in mitochondrial membrane potential at 0.25 to 0.75 uM incubated for 48 hrs by JC-1 staining based flow cytometry analysis; assay type: functional, cell-based; details: dose 0.25-0.75 µM
MDA-MB-468 [25] = experiment: Antiproliferative activity against human MDA-MB-468 cells assessed as cell growth inhibition incubated for 72 hrs by MTT assay; assay type: functional, cell-based; details: MDA-MB-468, 72 h
MDA-MB-468 [26] = experiment: Induction of apoptosis in human MDA-MB-468 cells assessed as increase in Bax expression at 0.25 to 0.75 uM incubated for 48 hrs by western blot analysis; assay type: functional, cell-based; details: dose 0.25-0.75 µM
MDA-MB-468 [27] = experiment: Induction of apoptosis in human MDA-MB-468 cells assessed as increase in apoptotic cells at 0.25 to 0.75 uM incubated for 48 hrs by Annexin V-PE and 7AAD staining based flow cytometry; assay type: functional, cell-based; details: dose 0.25-0.75 µM
MCF7 = experiment: Antiproliferative activity against human MCF7 cells assessed as cell growth inhibition incubated for 72 hrs by MTT assay; assay type: functional, cell-based; details: MCF7, 72 h
MDA-MB-468 [28] = experiment: Induction of apoptosis in human MDA-MB-468 cells assessed as increase in PARP expression at 0.25 to 0.75 uM incubated for 48 hrs by western blot analysis; assay type: functional, cell-based; details: dose 0.25-0.75 µM
[29] = Antiproliferative activity against human HK-2 cells assessed as cell growth inhibition incubated for 72 hrs by MTT assay; assay type: toxicity, cell-based
[30] = target: T1, Protein cereblon/Histone-lysine N-methyltransferase EZH2 (Homo sapiens); experiment: PROTAC activity at E3 ubiquitin ligase/EZH2 in human MDA-MB-468 cells assessed as decrease in CARM1 expression at 0.25 to 0.75 uM incubated for 48 hrs by western blot analysis; assay type: cell-based; details: dose 0.25-0.75 µM
[31] = target: T1, Protein cereblon/Histone-lysine N-methyltransferase EZH2 (Homo sapiens); experiment: PROTAC activity at E3 ubiquitin ligase/EZH2 in human MDA-MB-231 cells assessed as induction of EED degradation at 0.125 to 1 uM incubated for 48 hrs by western blot analysis; assay type: cell-based; details: dose 0.125-1 µM, DDE = dose-dependent effect
MDA-MB-468 [32] = experiment: Induction of apoptosis in human MDA-MB-468 cells assessed as increase in reduction in mitochondrial membrane potential at 0.25 to 0.75 uM incubated for 48 hrs by JC-1 staining based flow cytometry analysis; assay type: functional, cell-based; details: dose 0.25-0.75 µM

Activity [1]: Dde
IC50 (MV4-11): 0.74 µM
Activity [3]: Active
Activity [4]: Active
Activity [5]: Active
Ka (Homo sapiens): 5.7 10^6/Ms
IC50 (BT-549): 0.4 µM
IC50 (HL-60): 1.08 µM
koff [7]: 0.09231 s⁻¹
Activity [8]: Dde
Activity [9]: Active
Kd [12]: 0.0162 µM
Activity [14]: Dde
IC50 (MDA-MB-231 [17]): 0.57 µM
Activity [19]: Dde
Activity [20]: Active
Activity [21]: Active
Activity [22]: Dde
Activity [23]: Active
IC50 (MDA-MB-468 [25]): 0.38 µM
IC50 (MCF7): 18 µM
Activity [30]: Active
Activity [31]: Dde
SMILES: Cc1cc(C)c(CNC(=O)c2cc(-c3ccc(N4CCN(C(=O)CCCCCCCCc5cn(CCOCCOCCOCCOCCOCCOCCNc6cccc7c6C(=O)N(C6CCC(=O)NC6=O)C7=O)nn5)CC4)nc3)cc3c2cnn3C(C)C)c(=O)[nH]1 (configuration not stated)
Activity (MDA-MB-231 [2]): Active
Activity (MDA-MB-468 [6]): Active
Activity (MDA-MB-231 [10]): Active
IC50 at 72 h [11]: > 40 µM
Activity (MDA-MB-468 [13]): Active
IC50 at 72 h [15]: > 40 µM
Activity (MDA-MB-468 [16]): Active
Activity (MDA-MB-468 [18]): Active
Activity (MDA-MB-231 [24]): Active
Activity (MDA-MB-468 [26]): Active
Activity (MDA-MB-468 [27]): Active
Activity (MDA-MB-468 [28]): Active
IC50 at 72 h [29]: > 40 µM
Activity (MDA-MB-468 [32]): Active
